Measured values from BindingDB's records for patent US12371428 (Exelixis, 2025).

Experiments:
[1] = biological target: T1, Tyrosine-protein kinase Mer (Homo sapiens, UniProt Q12866); assay: Human Mer Kinase Assay
T1 sequence (Q12866 whole entry): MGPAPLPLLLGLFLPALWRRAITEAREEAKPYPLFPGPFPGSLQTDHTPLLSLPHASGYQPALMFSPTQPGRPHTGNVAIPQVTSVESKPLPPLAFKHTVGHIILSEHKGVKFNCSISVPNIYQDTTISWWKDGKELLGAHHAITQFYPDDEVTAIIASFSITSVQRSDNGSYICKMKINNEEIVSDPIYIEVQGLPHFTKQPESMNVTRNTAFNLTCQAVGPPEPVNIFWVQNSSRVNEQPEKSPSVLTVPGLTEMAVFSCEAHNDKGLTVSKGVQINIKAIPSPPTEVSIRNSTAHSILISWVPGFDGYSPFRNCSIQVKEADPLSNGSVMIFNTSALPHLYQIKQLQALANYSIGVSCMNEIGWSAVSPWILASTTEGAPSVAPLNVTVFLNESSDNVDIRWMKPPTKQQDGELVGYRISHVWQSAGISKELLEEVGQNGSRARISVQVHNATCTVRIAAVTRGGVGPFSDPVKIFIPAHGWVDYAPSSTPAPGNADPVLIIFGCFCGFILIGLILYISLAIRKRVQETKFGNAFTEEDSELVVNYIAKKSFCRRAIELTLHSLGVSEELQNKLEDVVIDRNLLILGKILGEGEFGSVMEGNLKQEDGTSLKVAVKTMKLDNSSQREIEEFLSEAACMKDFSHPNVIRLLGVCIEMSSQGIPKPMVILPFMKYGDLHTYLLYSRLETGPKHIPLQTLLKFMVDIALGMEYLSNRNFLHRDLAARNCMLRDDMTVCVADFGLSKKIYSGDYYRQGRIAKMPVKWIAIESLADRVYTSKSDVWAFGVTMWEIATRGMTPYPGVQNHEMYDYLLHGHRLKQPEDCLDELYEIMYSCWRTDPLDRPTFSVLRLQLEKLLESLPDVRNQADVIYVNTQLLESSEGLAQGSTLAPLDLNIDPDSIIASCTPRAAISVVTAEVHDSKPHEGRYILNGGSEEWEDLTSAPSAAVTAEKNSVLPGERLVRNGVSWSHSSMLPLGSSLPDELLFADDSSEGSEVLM
Procedure: Example C-1: Human Mer (residues R557-E882 with H628Q and R794A, 0.7 nM) was incubated with 8 mM MOPS pH 7.0, 0.2 mM EDTA, 30 mM NaCl, 250 μM […] (SEQ ID NO:2), 10 mM magnesium acetate, and 10 μM [γ-33P-ATP]. The reaction was initiated by the addition of the Mg/ATP mix. After incubation for 40 minutes at room temperature, the reaction was stopped by the addition of phosphoric acid to a concentration of 0.5%. A reaction aliquot of 10 μL was then spotted onto a P30 filtermat and washed four times for 4 minutes in 0.425% phosphoric acid and once in methanol prior to drying and scintillation counting. Incorporated 33P was measured using the Wallac Microbeta scintillation counter (Perkin Elmer).Example C-2: Human MER (residues 528-999; CarnaBio, 1 ng/well) was also incubated with enzymatic buffer (Cisbio) supplemented with 5 mM MgCl2 and 1 mM DTT. The mixture was added to the pre-plated compounds. The reaction was initiated upon addition of ATP at Km (40 μM). The reaction was incubated at room temperature for 60 min and stopped upon the addition of SA-XL665 and TK-antibody both diluted in EDTA-containing kinase detection buffer (Cisbio). The kinase activity was calculated as stated above and the IC50 values were reported.

[2] = biological target: Hepatocyte growth factor receptor (Homo sapiens, UniProt P08581); assay: Human Met Kinase Assay
Procedure: Example D-1: Human Met (residues R974-S1390 with A1209G and V1290L, 3.4 nM) was incubated with 8 mM MOPS pH 7.0, 0.2 mM EDTA, 250 µM […] (SEQ ID NO:3), 1 mM sodium orthovanadate, 5 mM […], 10 mM magnesium acetate, and 10 μM [γ-33P-ATP]. The reaction was initiated by the addition of the Mg/ATP mix. After incubation for 40 minutes at room temperature, the reaction was stopped by the addition of phosphoric acid to a concentration of 0.5%. A reaction aliquot of 10 μL was then spotted onto a P30 filtermat and washed four times for 4 minutes in 0.425% phosphoric acid and once in methanol prior to drying and scintillation counting. Incorporated 33P was measured using the Wallac Microbeta scintillation counter (Perkin Elmer).Example D-2: Human MET (residues 956-1390; CarnaBio, 0.1 ng/well) was also incubated with enzymatic buffer (Cisbio) supplemented with 5 mM MgCl2, 1 mM DTT and 1 mM MnCl2. The mixture was added to the pre-plated compounds. […] The reaction was incubated at room temperature for 40 min and stopped upon the addition of SA-XL665 and TK-antibody both diluted in EDTA-containing kinase detection buffer (Cisbio). The kinase activity was calculated as stated above and the IC50 values were reported.

[3] = biological target: Vascular endothelial growth factor receptor 2 (Homo sapiens, UniProt P35968); assay: Human KDR Kinase Assay
Procedure: Example B-1: Human KDR (residues K790-V1356, 55 nM) was incubated with 8 mM MOPS pH 7.0, 0.2 mM EDTA, 0.33 mg/mL myelin basic protein, 10 mM magnesium acetate, and 10 μM [γ-33P-ATP]. The reaction was initiated by the addition of the Mg/ATP mix. After incubation for 40 minutes at room temperature, the reaction was stopped by the addition of phosphoric acid to a concentration of 0.5%. A reaction aliquot of 10 μL was then spotted onto a P30 filtermat and washed four times for 4 minutes in 0.425% phosphoric acid and once in methanol prior to drying and scintillation counting. Incorporated 33P was measured using the Wallac Microbeta scintillation counter (Perkin Elmer).Example B-2: Human KDR (residues 790-1356; CarnaBio, 0.1 ng/well) was also incubated with enzymatic buffer (Cisbio) supplemented with 5 mM MgCl2, 1 mM MnCl2, and 1 mM DTT. The mixture was added to the pre-plated compounds. The reaction was initiated upon addition of ATP at Km (4.0 μM). The reaction was incubated at room temperature for 40 min and stopped upon the addition of SA-XL665 and TK-antibody both diluted in EDTA-containing kinase detection buffer (Cisbio). The kinase activity was calculated as stated above and the IC50 values were reported.

Measured: IC50

Sequence of Vascular endothelial growth factor receptor 2 (P35968 whole entry, the tested form may be a part): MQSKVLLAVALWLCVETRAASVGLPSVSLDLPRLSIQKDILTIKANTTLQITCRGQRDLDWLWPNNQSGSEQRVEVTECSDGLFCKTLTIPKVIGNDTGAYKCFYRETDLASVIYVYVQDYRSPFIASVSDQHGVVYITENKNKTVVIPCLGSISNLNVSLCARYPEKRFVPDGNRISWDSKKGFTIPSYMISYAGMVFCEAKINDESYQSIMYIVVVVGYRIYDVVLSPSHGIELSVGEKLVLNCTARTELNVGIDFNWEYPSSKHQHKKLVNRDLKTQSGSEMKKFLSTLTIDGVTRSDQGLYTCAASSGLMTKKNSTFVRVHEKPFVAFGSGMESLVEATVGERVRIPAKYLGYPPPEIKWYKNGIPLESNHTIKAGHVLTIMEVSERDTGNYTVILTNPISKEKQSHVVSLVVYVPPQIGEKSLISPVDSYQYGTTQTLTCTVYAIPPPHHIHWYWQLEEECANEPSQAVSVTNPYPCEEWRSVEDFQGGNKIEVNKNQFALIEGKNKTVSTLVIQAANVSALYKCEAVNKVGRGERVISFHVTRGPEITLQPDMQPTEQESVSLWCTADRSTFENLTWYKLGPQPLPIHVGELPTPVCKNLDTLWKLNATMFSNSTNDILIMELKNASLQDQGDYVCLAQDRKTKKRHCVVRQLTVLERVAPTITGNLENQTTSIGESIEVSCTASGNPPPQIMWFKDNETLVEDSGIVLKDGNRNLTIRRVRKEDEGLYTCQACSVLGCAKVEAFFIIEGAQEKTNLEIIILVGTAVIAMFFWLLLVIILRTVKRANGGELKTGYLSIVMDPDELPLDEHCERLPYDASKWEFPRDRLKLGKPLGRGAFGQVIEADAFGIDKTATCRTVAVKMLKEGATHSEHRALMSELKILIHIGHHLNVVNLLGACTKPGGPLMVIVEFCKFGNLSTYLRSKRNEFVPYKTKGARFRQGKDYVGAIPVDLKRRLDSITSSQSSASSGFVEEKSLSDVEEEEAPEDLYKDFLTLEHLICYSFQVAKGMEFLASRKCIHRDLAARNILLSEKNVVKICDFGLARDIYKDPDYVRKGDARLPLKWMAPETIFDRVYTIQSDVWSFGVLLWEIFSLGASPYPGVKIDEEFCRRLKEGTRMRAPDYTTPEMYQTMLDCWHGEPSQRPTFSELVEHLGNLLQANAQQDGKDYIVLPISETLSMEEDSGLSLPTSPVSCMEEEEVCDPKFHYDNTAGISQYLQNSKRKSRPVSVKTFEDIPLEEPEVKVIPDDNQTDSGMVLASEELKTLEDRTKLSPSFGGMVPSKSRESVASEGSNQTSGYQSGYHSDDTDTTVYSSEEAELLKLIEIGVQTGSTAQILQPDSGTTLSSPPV
Sequence of Hepatocyte growth factor receptor (P08581 whole entry, the tested form may be a part): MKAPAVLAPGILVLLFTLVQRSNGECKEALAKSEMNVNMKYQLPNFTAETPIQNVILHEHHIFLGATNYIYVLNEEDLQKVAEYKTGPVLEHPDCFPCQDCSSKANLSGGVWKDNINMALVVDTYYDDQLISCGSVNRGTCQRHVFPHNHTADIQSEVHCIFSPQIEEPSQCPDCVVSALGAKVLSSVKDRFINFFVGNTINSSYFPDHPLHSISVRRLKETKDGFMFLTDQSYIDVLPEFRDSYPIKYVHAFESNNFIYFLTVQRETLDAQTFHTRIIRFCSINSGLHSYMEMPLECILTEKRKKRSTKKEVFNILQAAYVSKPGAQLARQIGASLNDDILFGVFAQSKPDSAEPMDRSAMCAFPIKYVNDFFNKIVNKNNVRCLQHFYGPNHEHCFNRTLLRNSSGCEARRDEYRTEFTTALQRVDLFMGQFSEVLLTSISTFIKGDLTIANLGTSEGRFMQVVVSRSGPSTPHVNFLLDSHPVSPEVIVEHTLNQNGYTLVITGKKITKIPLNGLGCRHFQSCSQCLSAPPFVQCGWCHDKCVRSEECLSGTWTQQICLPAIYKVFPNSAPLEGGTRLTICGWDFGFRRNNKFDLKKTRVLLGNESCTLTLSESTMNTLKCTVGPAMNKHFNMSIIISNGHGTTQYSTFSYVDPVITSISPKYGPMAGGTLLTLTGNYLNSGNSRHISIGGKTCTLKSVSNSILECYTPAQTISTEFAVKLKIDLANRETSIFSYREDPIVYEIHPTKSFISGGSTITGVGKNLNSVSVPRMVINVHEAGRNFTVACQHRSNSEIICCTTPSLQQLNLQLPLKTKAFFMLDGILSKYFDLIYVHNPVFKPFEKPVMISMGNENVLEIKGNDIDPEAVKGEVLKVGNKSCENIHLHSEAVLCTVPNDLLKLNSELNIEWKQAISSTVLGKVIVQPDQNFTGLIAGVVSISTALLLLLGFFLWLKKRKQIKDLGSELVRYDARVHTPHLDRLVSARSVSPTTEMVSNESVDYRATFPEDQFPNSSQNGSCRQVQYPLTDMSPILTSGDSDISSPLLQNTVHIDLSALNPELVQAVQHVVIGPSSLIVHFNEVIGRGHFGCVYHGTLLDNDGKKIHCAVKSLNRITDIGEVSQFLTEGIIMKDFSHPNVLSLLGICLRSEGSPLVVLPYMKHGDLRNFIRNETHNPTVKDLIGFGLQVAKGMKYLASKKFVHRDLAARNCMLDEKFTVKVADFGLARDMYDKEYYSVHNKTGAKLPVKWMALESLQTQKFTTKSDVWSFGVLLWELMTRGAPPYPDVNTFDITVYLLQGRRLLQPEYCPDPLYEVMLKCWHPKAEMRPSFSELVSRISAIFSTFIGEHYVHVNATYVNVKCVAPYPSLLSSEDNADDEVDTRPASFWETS

COCCOc1ccc2nccc(Oc3ccc(NC(=O)C4=C(C)N=C(C)C(c5ccc(F)cc5)C4O)cc3F)c2n1 (stereo unspecified) [US12371428, Compound 349]
< 100 nM: all assays above

COc1cc2nccc(Oc3ccc(NC(=O)C4C(=O)C(c5ccc(F)cc5)=C(C)N=C4C)cc3F)c2nc1OC (stereo unspecified) [US12371428, Compound 154]
< 100 nM: all assays above
